US20170312219A1, “METHOD OF CONTRACEPTION” (Bayer Oy, priority 2008, published 2017)

Test system: adult cycling cynomolgus macaques
Experiment: animal model of intrauterine bleeding: IUS inserted in macaques, daily vaginal swabs scored for bleeding
Type: in vivo
Conditions: Group 1: IUS releasing 2 μg per day of levonorgestrel, 9 monkeys
Experimental: The effects of administering via an intrauterine system (IUS) levonorgestrel alone, or in combination with indomethacin, were tested in animal model of intrauterine bleeding. The study was conducted using three groups of adult cycling cynomolgus macaques. The macaques were monitored to record regular menstrual cycles. Scheduled (menses) and unscheduled uterine bleeding and spotting was assessed daily by vaginal swabs, and menstrual blood loss was quantified by vaginal tampons.
After about two menstrual cycles (about 60 days), the macaques were assigned to three separate groups and laparotomized on days 6-9 of the follicular phase. For each macaque, an IUS was inserted by hysterotomy into the uterine lumen and sutured in place. Group 1 included 9 monkeys that were given an IUS that released 2 μg per day of levonorgestrel. Group 2 included 8 monkeys that were given an IUS that released 2 μg per day of levonorgestrel and 10 μg per day of indomethacin. Group 3 included 7 monkeys that were given an IUS that released 2 μg per day of levonorgestrel and 30 μg per day of indomethacin.
The frequency and type of bleeding was assessed by daily vaginal swabs. FIGS. 9A-9B illustrate the results of the different types of bleedings. Gray-shaed cells represent positive swab or frank menses, which is the most heavy form of bleeding. Diagonal-lined cells represent light positive swab, which is an intermediated type of bleeding.
The gray-shaded cells that were assigned represent the heaviest form of bleeding were assigned a score of 2. The diagonal-lined cells represent an intermediate type of bleeding and were assigned a score of 1.
For evaluation of bleeding days, the first 7 days after insertion of the IUS were neglected, since the insertion procedure by surgery causes some bleeding that is unrelated to treatment effects. FIGS. 9A-9B include data for a period of 80 days after the IUS was inserted in each of the macaques.

[1] = 80 days after insertion, first 7 days neglected

C#C[C@]1(O)CC[C@H]2[C@@H]3CCC4=CC(=O)CC[C@@H]4[C@H]3CC[C@@]21CC [levonorgestrel]
average score for each of the macaques (heaviest bleeding = 2, intermediate = 1): 11.9 | total score for all of the macaques (heaviest bleeding = 2, intermediate = 1): 107 | average number of bleeding days per macaque [1]: 8.6 days | total number of bleeding days [1]: 77 days
